Consider 15 compounds from PubChem BioAssay (NCI).

Test systems include SF-268 CNS; OVCAR-4 ovarian; HCT-116 colon; MALME-3M melanoma; MDA-MB-231 breast; MDA-N; LOX IMVI melanoma; OVCAR-5 ovarian; SK-MEL-28 melanoma.
Holding throughout (test): NCI-60 cell line screen, 48 h

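These data come from cells grown in 96-well plates and exposed to compound for 48 hours at five concentrations. GI50 is the concentration that inhibits growth by half. At the TGI there is no net growth.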

As for `C#CCOCC12C=CC(O1)C1C(=O)OCC12` (configuration not stated), the TGI in the experiment with SF-268 CNS, in the experiment on OVCAR-4 ovarian, in the experiment with HCT-116 colon, in the experiment with MALME-3M melanoma, with MDA-MB-231 breast and with MDA-N was above 100 µM each time. Also, the TGI in the experiment with LOX IMVI melanoma, in the experiment with OVCAR-5 ovarian and in the experiment on SK-MEL-28 melanoma was above 100 µM each time.

For the compound `CC1=NN(C(=O)CSc2nc3ccc(I)cc3c(=O)n2Cc2ccccc2)C(=O)C1`, the TGI with SF-268 CNS is 69.5 µM; with OVCAR-4 ovarian, 87.8 µM; in the experiment with HCT-116 colon, above 100 µM; in the experiment with MDA-MB-231 breast it was above 100 µM; in the experiment on MDA-N it was above 100 µM; in the experiment with LOX IMVI melanoma, above 100 µM. Besides, the TGI in the experiment with OVCAR-5 ovarian and with SK-MEL-28 melanoma was above 100 µM throughout.

Regarding `COc1ccc2c(c1)CCN1CCc3cc(OC)c(OC)cc3CC21` (configuration not stated), the TGI in the experiment on SF-268 CNS, with OVCAR-4 ovarian, in the experiment on HCT-116 colon, in the experiment with MDA-MB-231 breast, with LOX IMVI melanoma and in the experiment on OVCAR-5 ovarian was above 100 µM each time. The same compound registered a TGI in the experiment on SK-MEL-28 melanoma above 100 µM.

On to `CN(CCCNC(=O)c1nn(-c2ccc(Cl)cc2Cl)c2c1Cc1ccccc1-2)CCCNC(=O)c1nn(-c2ccc(Cl)cc2Cl)c2c1Cc1ccccc1-2`, for which the TGI with OVCAR-4 ovarian was 2.58 µM; in the experiment on HCT-116 colon, 3.15 µM; in the experiment with MALME-3M melanoma it was 3.35 µM; in the experiment on MDA-MB-231 breast, 3.18 µM; in the experiment on MDA-N it was 3.17 µM; in the experiment with LOX IMVI melanoma, 3.26 µM. Besides, the figures for the TGI in the experiment on OVCAR-5 ovarian and in the experiment with SK-MEL-28 melanoma were 2.98 µM and 3.3 µM, respectively.

On to `O=C(CC(=O)Nc1ccccc1)N/N=C/c1cc(N=Nc2ccc(Br)cc2)ccc1O`, for which the TGI with SF-268 CNS, with OVCAR-4 ovarian, in the experiment with MALME-3M melanoma, with MDA-MB-231 breast, with MDA-N and with LOX IMVI melanoma was above 10 µM each time. Also, the TGI in the experiment with SK-MEL-28 melanoma was above 10 µM.

Turning to `COc1ccc(N=C2C(=Nc3ccc(OC)cc3)N(c3ccccc3)C(=S)N2N=C=C2Sc3ccccc3N2C)cc1`, the TGI with SF-268 CNS, in the experiment on HCT-116 colon, with MALME-3M melanoma, with MDA-MB-231 breast, with MDA-N and in the experiment on OVCAR-5 ovarian was above 100 µM each time. The TGI in the experiment on SK-MEL-28 melanoma was above 100 µM.

Take `O=C(O)CNC(=O)c1c2ccccc2nc2ccccc12`: the TGI in the experiment on SF-268 CNS, with OVCAR-4 ovarian, in the experiment with HCT-116 colon, in the experiment on MALME-3M melanoma, with MDA-MB-231 breast and in the experiment with LOX IMVI melanoma was above 100 µM in each case. For the same compound, the TGI with OVCAR-5 ovarian and with SK-MEL-28 melanoma was above 100 µM throughout.

With `Brc1c(C#CCC2CCCCC2)ccc(C#CCC2CCCCC2)c1Br`, the TGI in the experiment with SF-268 CNS, in the experiment with OVCAR-4 ovarian, in the experiment with MALME-3M melanoma, in the experiment on MDA-MB-231 breast, in the experiment on MDA-N and with LOX IMVI melanoma was above 100 µM in each case. Further, the TGI in the experiment on OVCAR-5 ovarian and in the experiment on SK-MEL-28 melanoma was above 100 µM each time.

Take `O=c1onc2c3ccccc3ncn12`: the TGI with SF-268 CNS, with OVCAR-4 ovarian, with HCT-116 colon, in the experiment with MDA-MB-231 breast, in the experiment with LOX IMVI melanoma and in the experiment with OVCAR-5 ovarian was above 100 µM each time. Besides, the TGI in the experiment with SK-MEL-28 melanoma is above 100 µM.

In the case of `CC1OC(OC2C(OC(=O)[C@@H]3CC(C)(C)C[C@H]4C5=CC[C@@H]6[C@@]7(C)C[C@H](O)[C@H](OC8OC(CO)C(O)C(O)C8O)[C@@](C)(CO)[C@@H]7[C@H](O)C[C@@]6(C)[C@]5(C)CC[C@@]34C)OCC(O)C2O)C(O)C(O)C1O` (some centres not stated), the TGI in the experiment on SF-268 CNS, with OVCAR-4 ovarian, with HCT-116 colon, with MALME-3M melanoma, in the experiment with MDA-MB-231 breast and in the experiment on MDA-N was above 7.5 µM each time. The TGI with LOX IMVI melanoma and in the experiment with OVCAR-5 ovarian was above 7.5 µM each time.

On to `CC1OC(O[C@H]2/C=C/C=C/C=C/C=C/C=C/C=C/C=C/[C@H](C)[C@@H](O)[C@@H](C)[C@H](C)OC(=O)CC(O)CC(O)CCC(O)C(O)CC(O)C[C@]3(O)C[C@H](O)C(C(=O)O)C(C2)O3)C(O)[C@H](N)C1O` (some centres not stated), for which the GI50 was 2.06 µM in the experiment on SF-268 CNS; 1.99 µM with HCT-116 colon; 1.88 µM with MALME-3M melanoma; 4.24 µM in the experiment on MDA-MB-231 breast; 1.79 µM in the experiment with LOX IMVI melanoma; 3.88 µM with OVCAR-5 ovarian. Further, the GI50 in the experiment with SK-MEL-28 melanoma is 2.07 µM. The TGI in the experiment on SF-268 CNS is 4.29 µM; in the experiment with HCT-116 colon, 4.05 µM; with MALME-3M melanoma, 3.68 µM; in the experiment on MDA-MB-231 breast it was 15.7 µM; with LOX IMVI melanoma it was 3.6 µM; in the experiment with OVCAR-5 ovarian, 16.8 µM. For the same compound, in the experiment on SK-MEL-28 melanoma, the TGI was 3.98 µM.

`O[C@H]1[C@H](O)[C@@H](O)[C@@]2(O)C[C@@H](O)[C@@H]1N2`: the TGI in the experiment with SF-268 CNS, in the experiment on OVCAR-4 ovarian, with HCT-116 colon, with MALME-3M melanoma, in the experiment on MDA-MB-231 breast and in the experiment with MDA-N was above 100 µM in each case. Besides, the TGI with LOX IMVI melanoma and in the experiment on SK-MEL-28 melanoma was above 100 µM throughout.

As to `COc1cc([C@@H]2c3cc(O)c(OC)cc3C=C(C(N)=O)[C@H]2C(N)=O)ccc1O`, the TGI in the experiment with SF-268 CNS, in the experiment on HCT-116 colon, with MALME-3M melanoma, in the experiment on MDA-MB-231 breast, in the experiment with MDA-N and with LOX IMVI melanoma was above 100 µM each time. The TGI in the experiment on OVCAR-5 ovarian and in the experiment with SK-MEL-28 melanoma was above 100 µM in each case.

With `CCC[C@H](C)C[C@H](C)C[C@H](C)/C=C(\C)[C@@H](O)[C@@H](C)C(=O)CC`, the TGI was determined as 39.6 µM with SF-268 CNS; 36.8 µM with OVCAR-4 ovarian; 33.9 µM in the experiment on HCT-116 colon; 33.6 µM in the experiment on MALME-3M melanoma; 44.6 µM in the experiment on MDA-MB-231 breast; 37.8 µM with LOX IMVI melanoma. The TGI in the experiment on OVCAR-5 ovarian turned out to be 34.1 µM; in the experiment with SK-MEL-28 melanoma, 33.4 µM.

Regarding `CCOC(=O)[C@H](Cc1ccc(O)cc1)N=C1[C@H]2CCC[C@]1(O)[C@@](C)([N+](=O)[O-])C2`, the TGI in the experiment on OVCAR-4 ovarian, in the experiment on HCT-116 colon, with MALME-3M melanoma, with MDA-N, in the experiment on LOX IMVI melanoma and in the experiment on OVCAR-5 ovarian was above 100 µM each time. Further, in the experiment on SK-MEL-28 melanoma, the TGI was above 100 µM.
